Experimental data: patent publication US8367831B2, “Heterocyclic compound or salt thereof and intermediate thereof” (priority 2006, dated 2013)
Structures can show the parent of a compound that is named as a salt.

Tests used:
[1] = Metabolic stability (general statement); format: in vitro ADME; settings: qualitative statement, no comparator named
Excerpt: The compound of the general formula [1] of the present invention has excellent metabolic stability. The metabolic stability can be evaluated by various tests, for example, by various types of stability tests selected from a human liver microsome metabolic stability test, a human S9 stability test, and the like.

S. aureus FDA209P = assay: Susceptibility test 1: MIC by micro-dilution method; format: cell-based; settings: Staphylococcus aureus, read-out: MIC (μg/mL) S. aureus FDA209P
Description: (§1) Test substances were initially dissolved in dimethylsulfoxide. Antibacterial activities (MICs) of the same compounds were determined by the micro-dilution method as recommended by the Japanese Society of Chemotherapy.
(§2) The bacteria cultured on Mueller-Hinton agar (MHA) plates at 35° C. overnight were suspended in sterile physiological saline in a concentration that was equivalent to 0.5 McFarland. The bacterial inoculum was prepared by 10-fold dilution of this suspension. Approximately 0.005 mL of the bacterial inoculum was inoculated into Cation-adjusted Mueller-Hinton broth (CAMHB, 100 μL/well) containing the test substance and was incubated at 35° C. overnight. The lowest concentration of the test substance at which no bacterial growth was macroscopically observed was determined as the MIC.

S. aureus F-3095 = assay: as above; format: cell-based; settings: Staphylococcus aureus, F3095, read-out: MIC (μg/mL) S. aureus F-3095
Description: as §1, §2

[2] = system: Staphylococcus aureus (S. aureus Smith); assay: S. aureus infection experiment in mice; format: in vivo; settings: ICR mice, five per group, intraperitoneal infection, 1 hour after infection
Description: ICR mice (male, SPF grade, 4-week old, five mice per group) were used. A bacterial inoculum was prepared by suspending Staphylococcus aureus (S. aureus
Smith), which was cultured on a Mueller-Hinton agar plate at 37° C. overnight, in sterile physiological saline, preparing a bacterial solution of about 4×10^8 CFU/mL, and diluting the solution 10-fold in 5.6% mucin-phosphate buffer. ICR mice were intraperitoneally administered with the bacterial inoculum (approximately 2×10^7 CFU/mouse) to induce infection. Test substances were dissolved in 10% hydroxypropyl-β-cyclodextrin and 0.05 mol/L hydrochloric acid. […] The number of surviving mice was recorded on 5 days after the infection.

Cytotoxicity test (XTT) = format: cell-based; settings: African green monkey, vero cells, 3 days incubation, absorbance 450 nm, read-out: CC50 (concentration when cell proliferation was inhibited by 50%)
Description: Each test substance was dissolved in dimethyl sulfoxide and was prepared to each concentration with E-MEM containing 10% FBS, and then 0.1 mL of this solution was dispensed into each well of a 96-well microplate. A vero cell suspension containing 3×10^4 cells/mL was prepared with E-MEM containing 10% FBS, and 0.1 mL of the suspension was inoculated to each well. After incubation in 5% CO2 at 37° C. for 3 days, 50 μL of E-MEM containing 1 mg/mL of 2,3-bis-(2-methoxy-4-nitro-5-sulfophenyl)-5-[(phenylamino)carbonyl]-2H-tetrazolium, inner salt, monosodium salt (XTT) and 25 μM of phenazine methosulfate (PMS) was added to each well. After about 2 hours, the absorbance at 450 nm was measured with a microplate reader.
The absorbance ratio of each well supplied with the test substance and the control not containing the test substance was calculated, and the concentration of each compound when cell proliferation was inhibited by 50% (CC50; μg/mL) was calculated.

[3] = Tissue distribution (general statement); settings: qualitative statement, no comparator named
[4] = Antimicrobial activity (general statement); settings: qualitative statement, no comparator named
[5] = Safety (general statement); settings: qualitative statement, no comparator named
Excerpt: The compound of the general formula [1] of the present invention has excellent safety. The safety can be evaluated by various tests, for example, by various types of safety tests selected from a cytotoxicity test, a selectivity test against DNA gyrase of human and various bacteria, a selectivity test against topoisomerase IV of human and various bacteria, an hERG test, a repeat-dose toxicity test, a cytochrome P450 (CYP) activity inhibition test, a metabolic dependence inhibition test, an in vivo mouse micronucleus test, an in vivo rat liver UDS test, and the like.

[6] = Hygroscopicity of the salt (statement); format: physicochemical; settings: trihydrochloride salt

Q: Which metabolic stability [1] does the source give for O=c1ccc2ncc(F)cc2n1CCN1CCC(NCc2cc3c(cn2)OCCO3)CC1 [Example 4, 1-(2-(4-((2,3-dihydro(1,4)dioxino(2,3-c)pyridin-7-ylmethyl)amino)piperidin-1-yl)ethyl)-7-fluoro-1,5-naphthyridin-2(1H)-one hydrochloride] here?
A: The metabolic stability was “higher”.

Q: What about the MIC (S. aureus FDA209P) of the same compound?
A: Its MIC is 0.0313 µg/mL.

Q: What about the MIC (S. aureus F-3095) of the same compound?
A: Its MIC is 0.0313 µg/mL.

Q: And the “number of surviving mice on 5 days after the infection” value (“number of surviving mice on 5 days” for short) ([2]; 3 mg/kg subcutaneously once)?
A: The value was “all mice”.

Q: And the CC50 at 3 days (Cytotoxicity test (XTT))?
A: Its CC50 at 3 days is at least 51.2 µg/mL.

Q: And the tissue distribution [3]?
A: Its tissue distribution is “higher”.

Q: What about the antimicrobial activity [4] of the same compound?
A: Its antimicrobial activity is “higher”.

Q: What about the safety [5] of the same compound?
A: Its safety is “higher”.

Q: With Cl.Cl.Cl.O=c1ccc2ncc(F)cc2n1CCN1CCC(NCc2cc3c(cn2)OCCO3)CC1 [1-(2-(4-((2,3-dihydro(1,4)dioxino(2,3-c)pyridin-7-ylmethyl)amino)piperidin-1-yl)ethyl)-7-fluoro-1,5-naphthyridin-2(1H)-one trihydrochloride] as the compound, how does the hygroscopicity [6] read?
A: The hygroscopicity was “nonhygroscopic”.

Q: What does the source list for O=c1ccc2ncc(Cl)cc2n1CCN1CCC(NCc2cc3c(cn2)OCCO3)CC1 [Example 77, 7-chloro-1-(2-(4-((2,3-dihydro(1,4)dioxino(2,3-c)pyridin-7-ylmethyl)amino)piperidin-1-yl)ethyl)-1,5-naphthyridin-2(1H)-one hydrochloride]?
A: metabolic stability [1]: higher; MIC (S. aureus FDA209P): 0.0313 µg/mL; MIC (S. aureus F-3095): 0.0625 µg/mL; number of surviving mice on 5 days after the infection ([2]; 3 mg/kg subcutaneously once): all mice; CC50 at 3 days (Cytotoxicity test (XTT)): ≥ 51.2 µg/mL; tissue distribution [3]: higher; antimicrobial activity [4]: higher; safety [5]: higher

Q: For COc1cnc2ccc(=O)n(CCN3CCC(NCc4cc5c(cn4)OCCO5)CC3)c2n1 [Example 85, 5-(2-(4-((2,3-dihydro(1,4)dioxino(2,3-c)pyridin-7-ylmethyl)amino)piperidin-1-yl)ethyl-3-methoxypyrido(2,3-b)pyrazin-6(5H)-one hydrochloride], which metabolic stability [1] is on record?
A: Its metabolic stability is “higher”.

Q: And the MIC (S. aureus FDA209P)?
A: Its MIC is 0.0313 µg/mL.

Q: And the MIC (S. aureus F-3095)?
A: The MIC was 0.0313 µg/mL.

Q: And the “number of surviving mice on 5 days” value ([2]; 1 mg/kg subcutaneously once)?
A: Its value is “four mice out of five”.

Q: What about the CC50 at 3 days (Cytotoxicity test (XTT)) of the same compound?
A: The CC50 at 3 days was at least 51.2 µg/mL.

Q: And the tissue distribution [3]?
A: The tissue distribution was “higher”.

Q: And the antimicrobial activity [4]?
A: Its antimicrobial activity is “higher”.

Q: What about the safety [5] of the same compound?
A: Its safety is “higher”.

Q: Which metabolic stability [1] does the source give for COc1cnc2ccc(=O)n(CCN3CCC(NCc4cc5c(cn4)OCCO5)CC3)c2c1 [Example 2, 1-(2-(4-((2,3-dihydro(1,4)dioxino(2,3-c)pyridin-7-ylmethyl)amino)piperidin-1-yl)ethyl)-7-methoxy-1,5-naphthyridin-2(1H)-one hydrochloride] here?
A: Its metabolic stability is “higher”.

Q: What about the MIC (S. aureus FDA209P) of the same compound?
A: Its MIC is 0.0313 µg/mL.

Q: What about the MIC (S. aureus F-3095) of the same compound?
A: The MIC was 0.0313 µg/mL.

Q: And the “number of surviving mice on 5 days” value ([2]; 3 mg/kg subcutaneously once)?
A: Its value is “all mice”.

Q: And the CC50 at 3 days (Cytotoxicity test (XTT))?
A: Its CC50 at 3 days is at least 51.2 µg/mL.

Q: What about the tissue distribution [3] of the same compound?
A: Its tissue distribution is “higher”.

Q: What about the antimicrobial activity [4] of the same compound?
A: Its antimicrobial activity is “higher”.

Q: What about the safety [5] of the same compound?
A: Its safety is “higher”.
